# Test results taken from PMC8632988, “Inhibition of SYK and cSrc kinases can protect bone and cartilage in preclinical models of osteoarthritis and rheumatoid arthritis” (Scientific Reports, 2021).
# pIC50: −log10 of the molar value. Where two headings read alike, the source gives them in different places.
# What was measured:
# Test in all cases: Kinase selectivity profile assay
# Format in all cases: biochemical
# ALK = biological target: T1, ALK (Homo sapiens, UniProt Q9UM73); conditions: 500 nM; relative to DMSO; read-out: Residual enzymatic activity
# T1 construct: purchased Reaction Biology Corporation
# Outline: (§1)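 Radiometric kinase assay run by a standard protocol. Unbound phosphate was removed by washing filters in phosphoric acid, and product radioactivity gave percent remaining kinase activity versus DMSO vehicle reactions. Run in duplicate.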
# ALK5/TGFBR1 = biological target: T2, ALK5/TGFBR1 (Homo sapiens, UniProt P36897); conditions: 500 nM; relative to DMSO; read-out: Residual enzymatic activity
# T2 construct: purchased Reaction Biology Corporation
# Outline: as §1
# BRSK2 = biological target: T3, BRSK2 (Homo sapiens, UniProt Q8IWQ3); conditions: 500 nM; relative to DMSO; read-out: Residual enzymatic activity
# T3 construct: purchased Reaction Biology Corporation
# Outline: as §1
# CDK3/cyclin E = biological target: T4, CDK3/cyclin E (Homo sapiens, UniProt Q00526); conditions: 500 nM; relative to DMSO; read-out: Residual enzymatic activity
# T4 construct: purchased Reaction Biology Corporation
# Outline: as §1
# CDK7/cyclin H = biological target: T5, CDK7/cyclin H (Homo sapiens, UniProt P50613); conditions: 500 nM; relative to DMSO; read-out: Residual enzymatic activity
# T5 construct: purchased Reaction Biology Corporation
# Outline: as §1
# COT1/MAP3K8 = biological target: T6, COT1/MAP3K8 (Homo sapiens, UniProt P41279); conditions: 500 nM; relative to DMSO; read-out: Residual enzymatic activity
# T6 construct: purchased Reaction Biology Corporation
# Outline: as §1
# DMPK2 = biological target: T7, DMPK2 (Homo sapiens, UniProt Q6DT37); conditions: read-out: Residual enzymatic activity
# T7 construct: purchased Reaction Biology Corporation
# Outline: as §1
# EPHA1 = biological target: T8, EPHA1 (Homo sapiens, UniProt P21709); conditions: for remaining activity at 0.5 µM: 500 nM, relative to DMSO, read-out: Residual enzymatic activity
# T8 construct: purchased Reaction Biology Corporation (assay service)
# T8 sequence (P21709 26-976): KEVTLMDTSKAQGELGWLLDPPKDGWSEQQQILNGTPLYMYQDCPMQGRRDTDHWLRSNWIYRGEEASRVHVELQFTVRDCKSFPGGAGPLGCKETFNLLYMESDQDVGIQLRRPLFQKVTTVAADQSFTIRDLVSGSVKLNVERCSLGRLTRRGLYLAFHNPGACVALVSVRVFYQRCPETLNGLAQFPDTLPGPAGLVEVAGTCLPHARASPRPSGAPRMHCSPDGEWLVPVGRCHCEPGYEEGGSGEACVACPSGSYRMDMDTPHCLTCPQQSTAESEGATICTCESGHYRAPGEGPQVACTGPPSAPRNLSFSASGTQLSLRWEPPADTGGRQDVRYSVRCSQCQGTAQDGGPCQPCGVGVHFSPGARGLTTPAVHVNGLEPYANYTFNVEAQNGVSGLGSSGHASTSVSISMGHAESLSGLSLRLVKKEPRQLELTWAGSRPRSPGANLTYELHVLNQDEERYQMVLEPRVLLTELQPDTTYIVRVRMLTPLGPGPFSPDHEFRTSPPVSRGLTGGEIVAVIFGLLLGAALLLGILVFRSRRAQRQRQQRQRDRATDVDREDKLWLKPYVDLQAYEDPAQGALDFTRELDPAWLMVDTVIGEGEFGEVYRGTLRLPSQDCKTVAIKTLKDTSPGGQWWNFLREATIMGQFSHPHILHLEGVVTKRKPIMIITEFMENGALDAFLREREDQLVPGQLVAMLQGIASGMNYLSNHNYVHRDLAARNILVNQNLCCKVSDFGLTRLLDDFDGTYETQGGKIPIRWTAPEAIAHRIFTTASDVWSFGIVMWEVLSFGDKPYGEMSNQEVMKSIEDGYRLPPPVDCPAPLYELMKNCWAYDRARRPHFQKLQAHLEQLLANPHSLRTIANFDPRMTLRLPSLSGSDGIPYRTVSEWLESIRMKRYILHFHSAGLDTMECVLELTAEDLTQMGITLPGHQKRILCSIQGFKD
# Outline: as §1
# ERK5/MAPK7 = biological target: T9, ERK5/MAPK7 (Homo sapiens, UniProt Q13164); conditions: 500 nM; relative to DMSO; read-out: Residual enzymatic activity
# T9 construct: purchased Reaction Biology Corporation
# Outline: as §1
# FAK/PTK2 = biological target: T10, FAK/PTK2 (Homo sapiens, UniProt Q05397); conditions: 500 nM; relative to DMSO; read-out: Residual enzymatic activity
# T10 construct: purchased Reaction Biology Corporation
# Outline: as §1
# GLK/MAP4K3 = biological target: T11, GLK/MAP4K3 (Homo sapiens, UniProt Q8IVH8); conditions: 500 nM; relative to DMSO; read-out: Residual enzymatic activity
# T11 construct: purchased Reaction Biology Corporation
# Outline: as §1
# IR = biological target: T12, IR (Homo sapiens, UniProt P06213); conditions: 500 nM; relative to DMSO; read-out: Residual enzymatic activity
# T12 construct: purchased Reaction Biology Corporation
# Outline: as §1
# MLK2/MAP3K10 = biological target: T13, MLK2/MAP3K10 (Homo sapiens, UniProt Q02779); conditions: for remaining activity at 0.5 µM: 500 nM, relative to DMSO, read-out: Residual enzymatic activity
# T13 construct: purchased Reaction Biology Corporation (assay service)
# Outline: as §1
# MNK1 = biological target: T14, MNK1 (Homo sapiens, UniProt Q9BUB5); conditions: 500 nM; relative to DMSO; read-out: Residual enzymatic activity
# T14 construct: purchased Reaction Biology Corporation
# Outline: as §1
# MSK2/RPS6KA4 = biological target: T15, MSK2/RPS6KA4 (Homo sapiens, UniProt O75676); conditions: 500 nM; relative to DMSO; read-out: Residual enzymatic activity
# T15 construct: purchased Reaction Biology Corporation
# Outline: as §1
# MST1/STK4 = biological target: T16, MST1/STK4 (Homo sapiens, UniProt Q13043); conditions: 500 nM; relative to DMSO; read-out: Residual enzymatic activity
# T16 construct: purchased Reaction Biology Corporation
# Outline: as §1
# NEK7 = biological target: T17, NEK7 (Homo sapiens, UniProt Q8TDX7); conditions: 500 nM; relative to DMSO; read-out: Residual enzymatic activity
# T17 construct: purchased Reaction Biology Corporation
# Outline: as §1
# P38g = biological target: T18, P38g (Homo sapiens, UniProt P53778); conditions: 500 nM; relative to DMSO; read-out: Residual enzymatic activity
# T18 construct: purchased Reaction Biology Corporation
# Outline: as §1
# PLK2 = biological target: T19, PLK2 (Homo sapiens, UniProt Q9NYY3); conditions: 500 nM; relative to DMSO; read-out: Residual enzymatic activity
# T19 construct: purchased Reaction Biology Corporation
# Outline: as §1
# PLK3 = biological target: T20, PLK3 (Homo sapiens, UniProt Q9H4B4); conditions: 500 nM; relative to DMSO; read-out: Residual enzymatic activity
# T20 construct: purchased Reaction Biology Corporation
# Outline: as §1
# RAF1 = biological target: T21, RAF1 (Homo sapiens, UniProt P04049); conditions: 500 nM; relative to DMSO; read-out: Residual enzymatic activity
# T21 construct: purchased Reaction Biology Corporation
# Outline: as §1
# SIK1 = biological target: T22, SIK1 (Homo sapiens, UniProt P57059); conditions: for remaining activity at 0.5 µM: 500 nM, relative to DMSO, read-out: Residual enzymatic activity
# T22 construct: purchased Reaction Biology Corporation (Malvern, PA, USA)
# Outline: as §1
# SRMS = biological target: T23, SRMS (Homo sapiens, UniProt Q9H3Y6); conditions: 500 nM; relative to DMSO; read-out: Residual enzymatic activity
# T23 construct: purchased Reaction Biology Corporation
# Outline: as §1
# TAOK1 = biological target: T24, TAOK1 (Homo sapiens, UniProt Q7L7X3); conditions: 500 nM; relative to DMSO; read-out: Residual enzymatic activity
# T24 construct: purchased Reaction Biology Corporation
# Outline: as §1
# TAOK2/TAO1 = biological target: T25, TAOK2/TAO1 (Homo sapiens, UniProt Q9UL54); conditions: 500 nM; relative to DMSO; read-out: Residual enzymatic activity
# T25 construct: purchased Reaction Biology Corporation
# Outline: as §1
# TNK1 = biological target: T26, TNK1 (Homo sapiens, UniProt Q13470); conditions: 500 nM; relative to DMSO; read-out: Residual enzymatic activity
# T26 construct: purchased Reaction Biology Corporation
# Outline: as §1
# ZAK/MLTK = biological target: T27, ZAK/MLTK (Homo sapiens, UniProt Q9NYL2); conditions: 500 nM; relative to DMSO; read-out: Residual enzymatic activity
# T27 construct: purchased Reaction Biology Corporation
# Outline: as §1
# [1] = 10-dose mode, threefold serial dilution from 10 μM
# T13 sequence (Q02779 whole entry): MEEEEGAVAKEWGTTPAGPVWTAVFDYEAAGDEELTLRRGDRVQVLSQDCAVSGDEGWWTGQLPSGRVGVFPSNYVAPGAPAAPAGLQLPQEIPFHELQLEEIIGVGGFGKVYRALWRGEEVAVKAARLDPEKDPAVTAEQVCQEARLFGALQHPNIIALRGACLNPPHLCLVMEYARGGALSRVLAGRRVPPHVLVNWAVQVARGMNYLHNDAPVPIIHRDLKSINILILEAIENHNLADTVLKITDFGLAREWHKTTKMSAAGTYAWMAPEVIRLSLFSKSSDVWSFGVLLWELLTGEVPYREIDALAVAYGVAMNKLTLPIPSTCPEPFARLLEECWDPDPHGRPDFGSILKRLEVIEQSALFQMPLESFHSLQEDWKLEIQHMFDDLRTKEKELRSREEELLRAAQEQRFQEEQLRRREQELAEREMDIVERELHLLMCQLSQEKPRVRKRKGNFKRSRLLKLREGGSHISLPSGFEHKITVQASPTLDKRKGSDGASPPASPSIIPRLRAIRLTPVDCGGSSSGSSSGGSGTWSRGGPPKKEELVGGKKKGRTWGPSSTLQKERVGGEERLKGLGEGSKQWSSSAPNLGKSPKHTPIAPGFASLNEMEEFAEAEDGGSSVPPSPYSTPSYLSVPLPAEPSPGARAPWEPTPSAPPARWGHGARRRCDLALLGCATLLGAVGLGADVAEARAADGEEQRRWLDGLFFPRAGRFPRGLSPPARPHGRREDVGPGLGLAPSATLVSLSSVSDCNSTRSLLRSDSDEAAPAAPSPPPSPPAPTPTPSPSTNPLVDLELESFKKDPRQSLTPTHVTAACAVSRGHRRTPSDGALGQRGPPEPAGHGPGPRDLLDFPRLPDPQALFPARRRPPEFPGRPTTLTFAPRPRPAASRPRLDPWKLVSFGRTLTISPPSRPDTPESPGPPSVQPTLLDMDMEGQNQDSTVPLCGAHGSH
# T22 sequence (P57059 whole entry): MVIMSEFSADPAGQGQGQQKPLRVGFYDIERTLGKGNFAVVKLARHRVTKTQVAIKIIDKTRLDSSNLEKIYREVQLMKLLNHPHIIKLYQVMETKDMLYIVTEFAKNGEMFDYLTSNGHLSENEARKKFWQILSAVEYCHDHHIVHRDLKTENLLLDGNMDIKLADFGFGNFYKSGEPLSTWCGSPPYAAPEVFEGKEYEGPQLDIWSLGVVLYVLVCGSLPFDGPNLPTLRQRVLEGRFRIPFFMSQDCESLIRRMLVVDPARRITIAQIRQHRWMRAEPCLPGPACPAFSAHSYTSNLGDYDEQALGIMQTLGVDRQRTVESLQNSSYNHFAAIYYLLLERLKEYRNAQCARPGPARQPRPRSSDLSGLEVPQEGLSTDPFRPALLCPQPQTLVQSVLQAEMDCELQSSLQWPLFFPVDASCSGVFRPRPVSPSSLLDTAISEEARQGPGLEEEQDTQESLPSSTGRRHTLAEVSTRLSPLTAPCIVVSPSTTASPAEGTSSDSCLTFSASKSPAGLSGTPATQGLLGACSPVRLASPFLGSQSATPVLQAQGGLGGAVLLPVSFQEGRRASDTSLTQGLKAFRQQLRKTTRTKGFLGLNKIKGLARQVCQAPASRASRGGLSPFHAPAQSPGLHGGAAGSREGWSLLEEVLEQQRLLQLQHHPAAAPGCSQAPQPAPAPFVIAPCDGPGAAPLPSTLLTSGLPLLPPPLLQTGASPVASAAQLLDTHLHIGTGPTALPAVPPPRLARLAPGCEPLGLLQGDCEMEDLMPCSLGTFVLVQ
# T4 sequence (Q00526 whole entry): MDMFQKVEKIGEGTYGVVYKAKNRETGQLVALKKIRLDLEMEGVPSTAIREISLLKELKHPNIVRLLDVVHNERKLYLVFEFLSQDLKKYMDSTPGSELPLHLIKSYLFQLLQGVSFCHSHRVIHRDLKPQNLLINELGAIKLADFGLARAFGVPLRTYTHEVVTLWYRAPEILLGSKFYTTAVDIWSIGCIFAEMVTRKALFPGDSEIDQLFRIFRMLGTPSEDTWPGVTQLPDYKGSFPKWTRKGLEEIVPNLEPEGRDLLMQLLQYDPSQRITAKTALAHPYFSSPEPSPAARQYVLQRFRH
# T4 sequence (P24864 whole entry partner): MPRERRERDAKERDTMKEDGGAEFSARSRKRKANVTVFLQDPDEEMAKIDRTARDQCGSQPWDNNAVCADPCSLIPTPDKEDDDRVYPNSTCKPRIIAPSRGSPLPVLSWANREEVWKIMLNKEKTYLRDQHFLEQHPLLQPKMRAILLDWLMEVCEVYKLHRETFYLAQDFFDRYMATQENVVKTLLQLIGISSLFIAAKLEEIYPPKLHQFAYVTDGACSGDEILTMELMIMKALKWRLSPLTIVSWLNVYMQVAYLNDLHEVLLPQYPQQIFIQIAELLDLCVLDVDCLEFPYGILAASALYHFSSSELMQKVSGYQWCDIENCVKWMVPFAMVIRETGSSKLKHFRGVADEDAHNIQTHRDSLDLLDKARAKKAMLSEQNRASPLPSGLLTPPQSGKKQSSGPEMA
# T25 sequence (Q9UL54 whole entry): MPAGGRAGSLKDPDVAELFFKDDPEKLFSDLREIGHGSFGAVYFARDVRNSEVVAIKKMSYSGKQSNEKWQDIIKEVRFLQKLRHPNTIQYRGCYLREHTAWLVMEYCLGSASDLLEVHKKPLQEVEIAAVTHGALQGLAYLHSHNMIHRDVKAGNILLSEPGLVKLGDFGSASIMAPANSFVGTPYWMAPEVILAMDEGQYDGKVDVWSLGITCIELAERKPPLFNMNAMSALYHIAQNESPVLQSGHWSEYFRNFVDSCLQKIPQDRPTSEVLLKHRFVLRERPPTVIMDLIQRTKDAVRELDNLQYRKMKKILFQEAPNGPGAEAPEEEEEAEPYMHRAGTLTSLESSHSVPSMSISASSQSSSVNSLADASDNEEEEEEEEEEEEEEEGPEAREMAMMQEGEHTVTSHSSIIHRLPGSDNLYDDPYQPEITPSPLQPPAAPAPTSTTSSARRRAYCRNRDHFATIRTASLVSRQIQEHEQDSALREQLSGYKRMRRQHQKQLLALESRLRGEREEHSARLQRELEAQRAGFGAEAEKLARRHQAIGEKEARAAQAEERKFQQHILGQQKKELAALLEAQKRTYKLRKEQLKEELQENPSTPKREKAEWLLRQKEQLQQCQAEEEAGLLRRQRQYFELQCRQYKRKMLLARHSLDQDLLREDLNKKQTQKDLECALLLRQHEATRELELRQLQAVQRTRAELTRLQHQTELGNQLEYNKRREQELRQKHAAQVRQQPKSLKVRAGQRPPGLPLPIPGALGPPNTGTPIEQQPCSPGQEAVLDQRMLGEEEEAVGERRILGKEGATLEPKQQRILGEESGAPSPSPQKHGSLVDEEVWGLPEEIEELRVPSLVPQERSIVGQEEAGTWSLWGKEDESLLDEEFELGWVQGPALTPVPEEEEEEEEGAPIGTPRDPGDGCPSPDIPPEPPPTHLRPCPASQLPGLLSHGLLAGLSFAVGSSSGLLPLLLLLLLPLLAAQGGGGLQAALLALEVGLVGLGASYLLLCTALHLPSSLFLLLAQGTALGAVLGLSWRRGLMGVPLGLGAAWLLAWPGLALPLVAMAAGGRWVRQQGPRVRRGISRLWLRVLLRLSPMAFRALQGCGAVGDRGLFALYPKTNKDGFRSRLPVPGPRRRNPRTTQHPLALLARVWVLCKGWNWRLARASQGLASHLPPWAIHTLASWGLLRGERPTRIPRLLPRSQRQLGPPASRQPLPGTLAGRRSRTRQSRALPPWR
# T27 sequence (Q9NYL2 whole entry): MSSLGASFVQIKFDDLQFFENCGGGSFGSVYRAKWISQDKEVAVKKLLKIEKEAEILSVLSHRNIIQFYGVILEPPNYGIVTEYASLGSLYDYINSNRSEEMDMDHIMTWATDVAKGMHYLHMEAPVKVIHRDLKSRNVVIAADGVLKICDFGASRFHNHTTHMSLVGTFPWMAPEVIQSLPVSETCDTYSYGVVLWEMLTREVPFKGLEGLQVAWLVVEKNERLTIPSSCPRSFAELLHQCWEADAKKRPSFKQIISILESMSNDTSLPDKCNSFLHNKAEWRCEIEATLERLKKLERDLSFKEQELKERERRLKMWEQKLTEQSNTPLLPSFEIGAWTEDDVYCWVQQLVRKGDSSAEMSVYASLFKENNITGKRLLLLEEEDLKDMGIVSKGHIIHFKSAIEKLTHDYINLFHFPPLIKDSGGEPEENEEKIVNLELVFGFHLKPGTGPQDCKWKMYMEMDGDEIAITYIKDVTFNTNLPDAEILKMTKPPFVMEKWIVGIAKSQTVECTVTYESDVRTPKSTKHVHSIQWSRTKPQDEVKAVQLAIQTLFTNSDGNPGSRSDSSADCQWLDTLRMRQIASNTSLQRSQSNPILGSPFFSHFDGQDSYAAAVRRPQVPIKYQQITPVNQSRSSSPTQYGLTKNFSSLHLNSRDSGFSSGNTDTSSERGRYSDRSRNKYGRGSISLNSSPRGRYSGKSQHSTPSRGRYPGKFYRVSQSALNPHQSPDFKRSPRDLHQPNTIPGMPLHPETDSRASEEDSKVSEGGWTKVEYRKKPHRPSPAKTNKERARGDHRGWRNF
# T2 sequence (P36897 34-503): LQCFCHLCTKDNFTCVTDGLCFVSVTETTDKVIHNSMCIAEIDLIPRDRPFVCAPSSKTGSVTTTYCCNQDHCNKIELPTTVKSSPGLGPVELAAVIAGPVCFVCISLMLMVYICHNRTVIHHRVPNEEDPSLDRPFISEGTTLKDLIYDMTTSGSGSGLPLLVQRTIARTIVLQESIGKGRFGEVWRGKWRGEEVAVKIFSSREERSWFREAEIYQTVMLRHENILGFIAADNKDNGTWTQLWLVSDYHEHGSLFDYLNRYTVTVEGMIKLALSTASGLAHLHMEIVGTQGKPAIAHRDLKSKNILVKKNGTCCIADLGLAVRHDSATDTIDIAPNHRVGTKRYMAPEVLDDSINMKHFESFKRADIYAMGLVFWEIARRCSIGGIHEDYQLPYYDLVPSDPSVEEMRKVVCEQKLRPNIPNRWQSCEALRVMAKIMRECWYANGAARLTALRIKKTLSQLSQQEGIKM
SMILES,remaining activity at 0.5 µM (ALK) [%],remaining activity at 0.5 µM (ALK5/TGFBR1) [%],remaining activity at 0.5 µM (BRSK2) [%],remaining activity at 0.5 µM (CDK3/cyclin E) [%],remaining activity at 0.5 µM (CDK7/cyclin H) [%],remaining activity at 0.5 µM (COT1/MAP3K8) [%],remaining activity at 0.5 µM (EPHA1) [%],remaining activity at 0.5 µM (ERK5/MAPK7) [%],remaining activity at 0.5 µM (FAK/PTK2) [%],remaining activity at 0.5 µM (GLK/MAP4K3) [%],remaining activity at 0.5 µM (IR) [%],remaining activity at 0.5 µM (MLK2/MAP3K10) [%],remaining activity at 0.5 µM (MNK1) [%],remaining activity at 0.5 µM (MSK2/RPS6KA4) [%],remaining activity at 0.5 µM (MST1/STK4) [%],remaining activity at 0.5 µM (NEK7) [%],remaining activity at 0.5 µM (P38g) [%],remaining activity at 0.5 µM (PLK2) [%],remaining activity at 0.5 µM (PLK3) [%],remaining activity at 0.5 µM (RAF1) [%],further results
COc1cc(Nc2ncnc(Nc3cc4c(cn3)NC(=O)C(C)(C)O4)n2)cc(OC)c1OC [MT-SYK-03],96.5,104,92.5,99,99.6,90.4,48.3,92.2,87.4,94.1,94.4,7.5,91.2,97.9,94.2,95.9,101,81.6,97.6,91.5,"remaining activity at 0.5 µM (DMPK2; 500 nM, relative to DMSO): 96.4%; pIC50 (EPHA1; [1]): 6.34; pIC50 (MLK2/MAP3K10; [1]): 8.37; inhibition at 0.5 µM (MLK2/MAP3K10; read-out: Inhibition at 500 nM): > 90%; remaining activity at 0.5 µM (SIK1): 10.1%; pIC50 (SIK1; [1]): 7.44; remaining activity at 0.5 µM (SRMS): 99.7%; remaining activity at 0.5 µM (TAOK1): 102%; remaining activity at 0.5 µM (TAOK2/TAO1): 105%; remaining activity at 0.5 µM (TNK1): 44.7%; remaining activity at 0.5 µM (ZAK/MLTK): 92.9%"
"COc1cc(Nc2ncc(F)c(Nc3ccc4c(n3)NC(=O)C(C)(C)O4)n2)cc(OC)c1OC [R406, reference compound]",41.2,108,84.2,90.3,81.7,100,25.4,88.2,29.7,65.8,77.5,1.1,61.5,97.7,86.3,62.3,90.5,19.4,53.1,73.3,remaining activity at 0.5 µM (DMPK2): 57.5%; remaining activity at 0.5 µM (SIK1): 7.2%; remaining activity at 0.5 µM (SRMS): 101%; remaining activity at 0.5 µM (TAOK1): 78.1%; remaining activity at 0.5 µM (TAOK2/TAO1): 47.4%; remaining activity at 0.5 µM (TNK1): 9.6%; remaining activity at 0.5 µM (ZAK/MLTK): 85.4%
